Measurements from ChEMBL document CHEMBL1149774, “Synthesis of N-(5,7-diamino-3-phenyl-quinoxalin-2-yl)-3,4,5-substituted anilines and N-[4[(5,7-diamino-3-phenylquinoxalin-2-yl)amino]benzoyl]-l-glutamic acid diethyl ester: evaluation of in vitro anti-cancer and anti-folate activities” (Eur J Med Chem, 2008).
Active and inactive are the calls of the source. No cut-off for these calls is given here.

Key:
[1] = tested on: HOP-92; experiment: Growth inhibition of human HOP92 cells after 48 hrs by SRB staining method; type: functional; details: HOP-92, 48 h
[2] = tested on: NCI-H322M; experiment: Growth inhibition of human NCI-H322M cells after 48 hrs by SRB staining method; type: functional
[3] = tested on: COLO 205; experiment: Growth inhibition of human COLO205 cells after 48 hrs by SRB staining method; type: functional; details: COLO 205, 48 h
[4] = tested on: HCT-116; experiment: Growth inhibition of human HCT116 cells after 48 hrs by SRB staining method; type: functional; details: HCT-116, 48 h
[5] = tested on: SF-539; experiment: Growth inhibition of human SF539 cells after 48 hrs by SRB staining method; type: functional; details: SF-539, 48 h
[6] = tested on: U-251; experiment: Growth inhibition of human U251 cells after 48 hrs by SRB staining method; type: functional; details: U-251, 48 h
[7] = tested on: SK-MEL-28; experiment: Growth inhibition of human SK-MEL-28 cells after 48 hrs by SRB staining method; type: functional; details: SK-MEL-28, 48 h
[8] = tested on: OVCAR-3; experiment: Growth inhibition of human OVCAR-3 cells after 48 hrs by SRB staining method; type: functional; details: OVCAR-3, 48 h
[9] = tested on: OVCAR-5; experiment: Growth inhibition of human OVCAR5 cells after 48 hrs by SRB staining method; type: functional; details: OVCAR-5, 48 h
[10] = tested on: OVCAR-8; experiment: Growth inhibition of human OVCAR8 cells after 48 hrs by SRB staining method; type: functional; details: OVCAR-8, 48 h
[11] = tested on: CAKI-1; experiment: Growth inhibition of human CAKI1 cells after 48 hrs by SRB staining method; type: functional; details: CAKI-1, 48 h
[12] = tested on: TK-10; experiment: Growth inhibition of human TK10 cells after 48 hrs by SRB staining method; type: functional; details: TK-10, 48 h
[13] = tested on: MDA-MB-231; experiment: Growth inhibition of human MDA-MB-231 cells after 48 hrs by SRB staining method; type: functional; details: MDA-MB-231, 48 h
[14] = tested on: BT-549; experiment: Growth inhibition of human BT549 cells after 48 hrs by SRB staining method; type: functional; details: BT-549, 48 h
[15] = target: T1, Dihydrofolate reductase (Homo sapiens) (UniProt P00374); experiment: Inhibition of human dihydrofolate reductase at 10 uM
T1 sequence (whole entry): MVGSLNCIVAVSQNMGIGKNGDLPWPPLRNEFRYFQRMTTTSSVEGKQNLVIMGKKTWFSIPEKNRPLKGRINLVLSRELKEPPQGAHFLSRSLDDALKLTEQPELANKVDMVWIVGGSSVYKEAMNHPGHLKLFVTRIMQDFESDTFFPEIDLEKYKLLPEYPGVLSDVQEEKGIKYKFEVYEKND

[16] = tested on: A549; experiment: Growth inhibition of human A549 cells after 48 hrs by SRB staining method; type: functional; details: A549, 48 h
[17] = tested on: SW-620; experiment: Growth inhibition of human SW620 cells after 48 hrs by SRB staining method; type: functional; details: SW-620, 48 h
[18] = tested on: SF-268; experiment: Growth inhibition of human SF268 cells after 48 hrs by SRB staining method; type: functional; details: SF-268, 48 h
[19] = tested on: CCRF-CEM; experiment: Growth inhibition of human CCRF-CEM cells after 48 hrs by SRB staining method; type: functional
[20] = tested on: RPMI-8226; experiment: Growth inhibition of human RPMI8226 cells after 48 hrs by SRB staining method; type: functional; details: RPMI-8226, 48 h
[21] = tested on: MOLT-4; experiment: Growth inhibition of human MOLT4 cells after 48 hrs by SRB staining method; type: functional; details: MOLT-4, 48 h
[22] = tested on: EKVX; experiment: Growth inhibition of human EKVX cells after 48 hrs by SRB staining method; type: functional
[23] = target: T2, Thymidylate synthase (Lactobacillus casei, UniProt P00469)
T2 sequence (P00469 whole entry): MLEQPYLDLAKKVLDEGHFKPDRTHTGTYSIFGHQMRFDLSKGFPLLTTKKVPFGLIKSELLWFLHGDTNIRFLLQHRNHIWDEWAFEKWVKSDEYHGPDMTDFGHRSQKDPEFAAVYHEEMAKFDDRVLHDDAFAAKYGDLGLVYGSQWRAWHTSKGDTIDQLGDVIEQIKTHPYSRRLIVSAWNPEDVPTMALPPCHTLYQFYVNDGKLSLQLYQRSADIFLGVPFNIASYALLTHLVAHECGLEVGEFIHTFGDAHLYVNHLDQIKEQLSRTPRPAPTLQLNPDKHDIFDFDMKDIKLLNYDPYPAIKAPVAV
Description: Inhibition of Lactobacillus casei thymidylate synthase

[24] = target: Thymidylate synthase (Homo sapiens, UniProt P04818)
Description: Inhibition of human thymidylate synthase

[25] = read-out: pLC50 (the source's name) (converted)

Chain of Thymidylate synthase (Homo sapiens, UniProt P04818) (P04818 whole entry): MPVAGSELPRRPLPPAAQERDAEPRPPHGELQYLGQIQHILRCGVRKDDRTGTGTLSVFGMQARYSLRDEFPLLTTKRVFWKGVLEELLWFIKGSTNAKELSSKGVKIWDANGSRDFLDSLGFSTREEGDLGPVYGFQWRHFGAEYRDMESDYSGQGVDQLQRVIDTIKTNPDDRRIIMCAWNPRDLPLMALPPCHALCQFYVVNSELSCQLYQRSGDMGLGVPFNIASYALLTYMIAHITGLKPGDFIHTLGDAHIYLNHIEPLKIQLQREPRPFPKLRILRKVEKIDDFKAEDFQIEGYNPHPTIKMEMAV

In the case of `CCOC(=O)CCC(NC(=O)c1ccc(Nc2nc3cc(N)cc(N)c3nc2-c2ccccc2)cc1)C(=O)OCC` (stereo unspecified), the GI50 [1] is reported as 10.7 µM, the LC50 [1] is reported as 81.3 µM and the TGI ([1]; read-out: pTGI (converted)) is reported as 29.5 µM. For the same molecule, the GI50 [2] was 41.7 µM, the LC50 [2] was > 100 µM and the TGI ([2]; read-out: pTGI (converted)) was > 100 µM. The GI50 [3] was 8.91 µM, the LC50 [3] was > 100 µM and the TGI ([3]; read-out: pTGI (converted)) was > 100 µM. For the same molecule, the GI50 [4] was 15.1 µM, the LC50 [4] was > 100 µM and the TGI ([4]; read-out: pTGI (converted)) was 51.3 µM. The GI50 [5] was 27.5 µM, the LC50 [5] was > 100 µM and the TGI ([5]; read-out: pTGI (converted)) was > 100 µM. The GI50 [6] was 20 µM, the LC50 (50% lethal concentration) [6] was 95.5 µM and the TGI ([6]; read-out: pTGI (converted)) was 43.7 µM. The GI50 [7] was 1.51 µM, the CC50 [7, 25] was 5.89 µM and the TGI ([7]; read-out: pTGI (converted)) was 3.02 µM. For the same molecule, the GI50 [8] was 8.51 µM, the LC50 [8] was > 100 µM and the TGI ([8]; read-out: pTGI (converted)) was 31.6 µM. For the same molecule, the GI50 [9] was 34.7 µM, the LC50 [9] was > 100 µM and the TGI ([9]; read-out: pTGI (converted)) was 87.1 µM. For the same molecule, the GI50 [10] was 33.9 µM, the CC50 [10, 25] was > 100 µM and the TGI ([10]; read-out: pTGI (converted)) was > 100 µM. The GI50 [11] was 27.5 µM, the CC50 [11, 25] was > 100 µM and the TGI ([11]; read-out: pTGI (converted)) was > 100 µM. For the same molecule, the GI50 [12] was 33.1 µM, the CC50 [12, 25] was > 100 µM and the TGI ([12]; read-out: pTGI (converted)) was 75.9 µM. The GI50 [13] was 8.91 µM, the CC50 [13, 25] was 81.3 µM and the TGI ([13]; read-out: pTGI (converted)) was 28.2 µM. The GI50 [14] was 41.7 µM, the CC50 [14, 25] was > 100 µM and the TGI ([14]; read-out: pTGI (converted)) was > 100 µM. For the same molecule, the Activity [15] was “inactive”, the GI50 [16] was 20 µM and the CC50 [16, 25] was > 100 µM. For the same molecule, the TGI ([16]; read-out: pTGI (converted)) was > 100 µM, the GI50 [17] was 40.7 µM and the CC50 [17, 25] was > 100 µM. The TGI ([17]; read-out: pTGI (converted)) was > 100 µM, the GI50 [18] was 23.4 µM and the CC50 [18, 25] was > 100 µM. The TGI ([18]; read-out: pTGI (converted)) was > 100 µM, the GI50 [19] was 2.95 µM and the CC50 [19, 25] was > 100 µM. The TGI ([19]; read-out: pTGI (converted)) was > 100 µM, the GI50 [20] was 3.16 µM and the CC50 [20, 25] was > 100 µM. For the same molecule, the TGI ([20]; read-out: pTGI (converted)) was > 100 µM, the GI50 [21] was 2.4 µM and the CC50 [21, 25] was > 100 µM. The TGI ([21]; read-out: pTGI (converted)) was 7.41 µM, the GI50 [22] was 28.8 µM and the CC50 [22, 25] was > 100 µM. For the same molecule, the TGI ([22]; read-out: pTGI (converted)) was > 100 µM, the Ki [23] was 27 µM and the Ki [24] was 34 µM.
